# Data published in US7767240B2, “Microbiological control in poultry processing” (priority 2001, dated 2010).
# Columns and labels:
# [1] = tested on: Salmonella; test: Salmonella positive samples, simulated USDA HACCP detection (Example 7); assay type: cell-based, Salmonella enteritidis; conditions: 20 ppm (Cl2 equivalent) during chilling; for Salmonella positive samples (Number 51): birds inoculated with Salmonella prior to chilling, control 21/51; for Salmonella positive samples (%): control 41.18%
# Text: After normal processing of 56-day-old birds, carcasses were immersed first in a warm bath containing 10^4 per mL Escherichia coli, 10^4 per mL Salmonella enteritidis, 10^4 per mL Pseudomonas aeruginosa, 10^4 per mL Campylobacter jejuni, and 10^4 per mL spoilage bacteria each from two strains (Listeria monocytogenes and Shigella sonnei). Carcasses were then immersed in a chill tank “soup”, containing normal organic fluids (blood, fat, skin, and meat particles) and containing various disinfectants (termed test materials). These whole bird bacteria count tests were conducted at pH 8. The effect of the test compounds on skin pigmentation was determined by use of Minolta Color Meter L value or Lightness, a value or redness and b value or yellowness. Post-chilling skin bacteria of various strains were determined over a 20-day period. Spoilage, using sensory odors as a model, determined time required to create a putrid/ammonia-like odor. After salmonella infection in chill tanks, USDA HACCP salmonella detection was simulated and reported.
# DBDMH and BCDMH stock solutions and diluted test solutions (20 ppm Cl2 equivalent), a bacteria stock solution, and a “chicken soup” were prepared as in Example 3 except that the Stabrom® 909 biocide concentrate was diluted by adding 30 mL per liter of water just prior to application. This diluted solution was sprayed on the birds, both inside and outside, in quantities of 200 mL per bird. In addition, the bacterial broth treatments, the whole bird wash sampling procedure, and the methodologies used for quantitative or qualitative determinations for bacterial organisms were conducted as in Example 3.
# The details concerning the trial events used as well as the detailed experimental design used in these tests were the same as described in Example 6. The only exceptions were: • a) In the case of the birds of Test Group 5 (note Table 38), while the carcass was still warm, the 10 birds were each sprayed both internally and externally, using a misting hand-held nozzle, with 200 mL of the 3% solution of Stabrom 909 biocide (SSBC). […] The spray was allowed to stay on the warm carcasses for 60 seconds. • b) The treatment on sampling day 0 of 102 total of the remaining 110 carcasses from each treatment involving “whole bird” washing and Salmonella detection, all as described in Example 6, was applied only to the birds of Test Groups 1-4 (note Table 38).
# [2] = tested on: Escherichia coli; test: AOAC test method, kill of bacterial culture; assay type: cell-based; conditions: for concentration required to achieve complete kill within 30 seconds: Escherichia coli, AOAC test
# Protocol: One such series of tests involved determinations of microbiological control against Escherichia coli bacteria. Another set of tests involved determinations of microbiological control against Enterococcus faecium. In each case, comparative tests were carried out in the same manner utilizing the AOAC test method. Such test involves exposing a culture of the microorganism to various concentrations of a test solution prepared from an aqueous stock solution of the compound under test. At various time intervals the halogen in the test suspensions is chemically neutralized, and the amount of viable bacteria remaining is enumerated by plating onto nutrient agar and incubating for 2 days at 37° C. Results are expressed at the log10 colony forming units (CFU). The concentration of the compound required to achieve complete kill (i.e., no viable bacteria remain) within 30 seconds is determined in the test.
# Table 43 summarizes the data obtained in the tests using respectively, 1,3-dibromo-5,5-dimethylhydantoin (DBDMH) and N,N′-bromochloro-5,5-dimethylhydantoin (BCDMH) and in which the microorganism in each case was Escherichia coli. It can be seen that 1,3-dibromo-5,5-dimethylhydantoin passed the test at one milligram of bromine, as […] per liter of water, as evidenced by the complete kill within 30 seconds, whereas 1,3-bromochloro-5,5-dimethylhydantoin required two milligrams of bromine, as Br2, per liter of water to achieve complete kill within 30 seconds.
# [3] = 0.5 mg/L as Br2, contact time 30 sec
# [4] = 0.5 mg/L as Br2, contact time 1 min
# [5] = 0.5 mg/L as Br2, contact time 2 min
# [6] = 0.5 mg/L as Br2, contact time 3 min
# [7] = 0.5 mg/L as Br2, contact time 4 min
# [8] = 0.5 mg/L as Br2, contact time 5 min
# [9] = 0.5 mg/L as Br2, contact time 10 min
# [10] = 1.0 mg/L as Br2, contact time 30 sec
# [11] = 1.0 mg/L as Br2, contact time 1 min
# [12] = 1.0 mg/L as Br2, contact time 2 min
# [13] = 1.0 mg/L as Br2, contact time 3 min
# [14] = 1.0 mg/L as Br2, contact time 4 min
# [15] = 1.0 mg/L as Br2, contact time 5 min
# [16] = 1.0 mg/L as Br2, contact time 10 min
# [17] = 2.0 mg/L as Br2, contact time 30 sec
# [18] = 2.0 mg/L as Br2, contact time 1 min
# [19] = 2.0 mg/L as Br2, contact time 2 min
# [20] = 2.0 mg/L as Br2, contact time 3 min
# [21] = 2.0 mg/L as Br2, contact time 4 min
# [22] = 2.0 mg/L as Br2, contact time 5 min
# [23] = 2.0 mg/L as Br2, contact time 10 min
SMILES,Salmonella positive samples (Number 51) [1],Salmonella positive samples (%) [1],"Log10 CFU Recovered [2, 3]","Log10 CFU Recovered [2, 4]","Log10 CFU Recovered [2, 5]","Log10 CFU Recovered [2, 6]","Log10 CFU Recovered [2, 7]","Log10 CFU Recovered [2, 8]","Log10 CFU Recovered [2, 9]","Log10 CFU Recovered [2, 10]","Log10 CFU Recovered [2, 11]","Log10 CFU Recovered [2, 12]","Log10 CFU Recovered [2, 13]","Log10 CFU Recovered [2, 14]","Log10 CFU Recovered [2, 15]","Log10 CFU Recovered [2, 16]","Log10 CFU Recovered [2, 17]","Log10 CFU Recovered [2, 18]","Log10 CFU Recovered [2, 19]","Log10 CFU Recovered [2, 20]",also measured
"CC1(C)C(=O)N(Cl)C(=O)N1Br [BCDMH, N,N′-bromochloro-5,5-dimethylhydantoin]",6/51,11.76%,>4.48 Log10 CFU,4.46 Log10 CFU,1.65 Log10 CFU,0 Log10 CFU,0 Log10 CFU,0 Log10 CFU,0 Log10 CFU,>4.48 Log10 CFU,0.7 Log10 CFU,0 Log10 CFU,0 Log10 CFU,0 Log10 CFU,0 Log10 CFU,0 Log10 CFU,0 Log10 CFU,0 Log10 CFU,0 Log10 CFU,0 Log10 CFU,"Log10 CFU Recovered [2, 21]: 0 Log10 CFU; Log10 CFU Recovered [2, 22]: 0 Log10 CFU; Log10 CFU Recovered [2, 23]: 0 Log10 CFU; concentration required to achieve complete kill within 30 seconds [2]: two"
"CC1(C)C(=O)N(Br)C(=O)N1Br [DBDMH, 1,3-dibromo-5,5-dimethylhydantoin]",1/51,1.96%,>4.48 Log10 CFU,1.70 Log10 CFU,0 Log10 CFU,0 Log10 CFU,0 Log10 CFU,0 Log10 CFU,0 Log10 CFU,0 Log10 CFU,0 Log10 CFU,0 Log10 CFU,0 Log10 CFU,0 Log10 CFU,0 Log10 CFU,0 Log10 CFU,0 Log10 CFU,0 Log10 CFU,0 Log10 CFU,0 Log10 CFU,"Log10 CFU Recovered [2, 21]: 0 Log10 CFU; Log10 CFU Recovered [2, 22]: 0 Log10 CFU; Log10 CFU Recovered [2, 23]: 0 Log10 CFU; concentration required to achieve complete kill within 30 seconds [2]: one"
